Experimental data from publication PMC7501296, “Rapid and direct control of target protein levels with VHL-recruiting dTAG molecules” (Nature Communications, 2020).
Where “and” joins values, the source holds several entries; their conditions need not be identical. Identical values can stand only once.

Tests used:
Assay type in all cases: cell-based
[1] = tested on: PATU-8902 FKBP12^F36V-KRAS^G12V; KRAS^-/- clone; experiment: Antiproliferation, PATU-8902 FKBP12F36V-KRASG12V; KRAS-/- clone, 3D-spheroid (CellTiter-Glo); conditions: FKBP12F36V-KRASG12V, KRAS-/-, 3D-spheroid, replicate values
Description: (§1) Cell viability was assayed in 2D-adherent or ultra-low adherent 3D-spheroids using CellTiter-Glo (Promega)[6],[15]. Luminescence was measured on an Envision 2104 plate reader (PerkinElmer) and Fluostar Omega Reader (BMG Labtech) and data was analyzed using GraphPad PRISM v8. Synergy assessments were performed using CellTiter-Glo (Promega) with the following modifications to the protocol described in the ref. [34]. In brief, EWS502 cells were plated at 1000 cells per well in 50 µL of appropriate media in 384-well white culture plates (Corning) allowed to adhere overnight, and 100 nL of compounds were added using a Janus Workstation pin tool (PerkinElmer) for 72 h. Cell viability was measured by addition of 10 µL of CellTiter-glo (Promega), followed by incubation for 15 minutes at room temperature. Luminescence was measured on an Envision 2104 plate reader (PerkinElmer) and data was analyzed using GraphPad PRISM v8.

FKBP12^WT-Nluc = target: T1, FKBP12^WT-Nluc (Homo sapiens, UniProt P62942); experiment: FKBP12WT-Nluc dual luciferase assay (293FT); conditions: 293FT FKBP12WT-Nluc, 24 h
T1 construct: expressed in transfected cells; host or cells: 293FT
Description: (§2) Dual luciferase assays were performed using 293FT FKBP12^WT-Nluc and FKBP12^F36V-Nluc cells. In brief, cells were plated at 2000 cells per well in 20 µL of appropriate media in 384-well white culture plates (Corning), allowed to adhere overnight, and 100 nL of compounds were added using a Janus Workstation pin tool (PerkinElmer) for 24 h at 37 °C. To evaluate Fluc signal, plates were brought to room temperature, 20 µL of Dual-Glo Reagent (Promega) was added for 10 min and luminescence was measured on an Envision 2104 plate reader (PerkinElmer). Subsequently, 20 µL of Dual-Glo Stop & Glo Reagent (Promega) was added for 10 min and luminescence was again measured to capture Nluc signal. DMSO-normalized ratios of Nluc/Fluc signal was analyzed and plotted using GraphPad PRISM v8[6].

[2] = tested on: PATU-8902 LACZ-FKBP12^F36V clone; experiment: Antiproliferation, PATU-8902 LACZ-FKBP12F36V clone, 2D-monolayer (CellTiter-Glo)
Description: as §1

[3] = tested on: PATU-8902 FKBP12^F36V-KRAS^G12V; KRAS^-/- clone; experiment: Antiproliferation, PATU-8902 FKBP12F36V-KRASG12V; KRAS-/- clone, 2D-monolayer (CellTiter-Glo)
Description: as §1

[4] = tested on: PATU-8902 LACZ-FKBP12^F36V clone; experiment: Antiproliferation, PATU-8902 LACZ-FKBP12F36V clone, 3D-spheroid (CellTiter-Glo)
Description: as §1

FKBP12^F36V-Nluc = target: T2, FKBP12^F36V-Nluc (Homo sapiens, UniProt P62942, F37V); experiment: FKBP12F36V-Nluc dual luciferase assay (293FT); conditions: 293FT FKBP12F36V-Nluc, 24 h
T2 construct: expressed in transfected cells; host or cells: 293FT
Description: as §2

[5] = log10[compound] (M) -5.30103, single replicates
[6] = log10[compound] (M) -5.80103, single replicates
[7] = log10[compound] (M) -6.30103, single replicates
[8] = log10[compound] (M) -6.80103, single replicates
[9] = log10[compound] (M) -7.30103, single replicates
[10] = log10[compound] (M) -7.80103, single replicates
[11] = log10[compound] (M) -8.30103, single replicates
[12] = log10[compound] (M) -8.80103, single replicates
[13] = log10[compound] (M) -9.30103, single replicates
[14] = log10[compound] (M) -9.80103, single replicates
[15] = log10[compound] (M) -5.69897, replicate values
[16] = log10[compound] (M) -6.19897, replicate values
[17] = log10[compound] (M) -6.69897, replicate values
[18] = log10[compound] (M) -7.19897, replicate values
[19] = log10[compound] (M) -7.69897, replicate values
[20] = log10[compound] (M) -8.19897, replicate values
[21] = log10[compound] (M) -8.69897, replicate values
[22] = log10[compound] (M) -9.19897, replicate values
[23] = log10[compound] (M) -9.69897, replicate values
[24] = log10[compound] (M) -10.199, replicate values

T1 sequence (P62942 2-108 limits assumed): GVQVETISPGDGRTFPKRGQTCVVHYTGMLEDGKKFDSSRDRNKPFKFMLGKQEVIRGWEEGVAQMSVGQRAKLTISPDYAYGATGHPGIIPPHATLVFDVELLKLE
T2 sequence (P62942 2-108 F37V limits assumed): as the sequence (P62942 2-108 limits assumed) above, with F36V counted along it

For `CC[C@H](C(=O)N1CCCC[C@H]1C(=O)O[C@H](CCc1ccc(OC)c(OC)c1)c1ccccc1OCC(=O)NCCCCCCCCNc1ccc2c(c1)C(=O)N(C1CCC(=O)NC1=O)C2=O)c1cc(OC)c(OC)c(OC)c1` (stereo partly drawn) [dTAG-47], the DMSO-normalized antiproliferation ([1]; log10[compound] (M) -5.69897) was 10.0402 and 10.6917 and 15.8593 and 10.4467, the DMSO-normalized antiproliferation ([1]; log10[compound] (M) -6.19897) was 11.3488 and 8.236 and 4.984 and 9.032 and the DMSO-normalized antiproliferation ([1]; log10[compound] (M) -6.69897) was 14.7066 and 10.4355 and 16.0487 and 8.1023. For the same compound, the DMSO-normalized antiproliferation ([1]; log10[compound] (M) -7.19897) was 11.6773 and 15.954 and 8.269 and 8.1914, the DMSO-normalized antiproliferation ([1]; log10[compound] (M) -7.69897) was 15.915 and 11.6328 and 15.6143 and 14.7735 and the DMSO-normalized antiproliferation ([1]; log10[compound] (M) -8.19897) was 17.2515 and 18.6047 and 14.0328 and 13.4092. The DMSO-normalized antiproliferation ([1]; log10[compound] (M) -8.69897) was 38.6293 and 28.3831 and 27.3251 and 20.0636, the DMSO-normalized antiproliferation ([1]; log10[compound] (M) -9.19897) was 80.9673 and 68.7721 and 60.1519 and 83.6347 and the DMSO-normalized antiproliferation ([1]; log10[compound] (M) -9.69897) was 92.188 and 73.717 and 97.9125 and 91.7258. The DMSO-normalized antiproliferation ([1]; log10[compound] (M) -10.199) was 111.244 and 86.8032 and 100.63 and 85.0157, the “DMSO-normalized ratio of Nluc/Fluc signal” value (FKBP12^WT-Nluc; [5]) was 84.1355 and 61.3325 and 70.7772 and 69.8836 and the “DMSO-normalized ratio of Nluc/Fluc signal” value (FKBP12^WT-Nluc; [6]) was 93.0264 and 83.3041 and 88.6237 and 105.071. For the same compound, the “DMSO-normalized ratio of Nluc/Fluc signal” value (FKBP12^WT-Nluc; [7]) was 94.1663 and 90.3102 and 81.5579 and 90.5666, the “DMSO-normalized ratio of Nluc/Fluc signal” value (FKBP12^WT-Nluc; [8]) was 110.721 and 121.213 and 82.3107 and 91.0391 and the “DMSO-normalized ratio of Nluc/Fluc signal” value (FKBP12^WT-Nluc; [9]) was 107.713 and 93.6392 and 128.788 and 92.5578. For the same compound, the “DMSO-normalized ratio of Nluc/Fluc signal” value (FKBP12^WT-Nluc; [10]) was 103.034 and 105.226 and 82.6165 and 80.9641, the “DMSO-normalized ratio of Nluc/Fluc signal” value (FKBP12^WT-Nluc; [11]) was 109.495 and 103.137 and 100.817 and 113.935 and the “DMSO-normalized ratio of Nluc/Fluc signal” value (FKBP12^WT-Nluc; [12]) was 108.489 and 81.746 and 104.598 and 105.548. The “DMSO-normalized ratio of Nluc/Fluc signal” value (FKBP12^WT-Nluc; [13]) was 150.295 and 133.521 and 111.306 and 119.516, the “DMSO-normalized ratio of Nluc/Fluc signal” value (FKBP12^WT-Nluc; [14]) was 91.0985 and 100.837 and 94.8437 and 78.0176 and the DMSO-normalized antiproliferation [2, 15] was 66.3552 and 78.983 and 129.177 and 83.2821. The DMSO-normalized antiproliferation [2, 16] was 96.6043 and 136.336 and 78.4431 and 113.952, the DMSO-normalized antiproliferation [2, 17] was 106.502 and 122.166 and 122.162 and 152.939 and the DMSO-normalized antiproliferation [2, 18] was 97.4699 and 137.606 and 129.786 and 96.3913. For the same compound, the DMSO-normalized antiproliferation [2, 19] was 105.363 and 127.754 and 134.499 and 162.317, the DMSO-normalized antiproliferation [2, 20] was 108.061 and 166.691 and 180.246 and 124.553 and the DMSO-normalized antiproliferation [2, 21] was 122.542 and 158.966 and 101.253 and 156.902. For the same compound, the DMSO-normalized antiproliferation [2, 22] was 124.955 and 178.332 and 114.428 and 108.403, the DMSO-normalized antiproliferation [2, 23] was 90.3511 and 110.898 and 123.983 and 115.732 and the DMSO-normalized antiproliferation [2, 24] was 132.189 and 174.913 and 122.829 and 145.695. For the same compound, the DMSO-normalized antiproliferation [3, 15] was 6.913 and 6.748 and 7.162 and 6.575, the DMSO-normalized antiproliferation [3, 16] was 6.887 and 6.816 and 9.161 and 7.924 and the DMSO-normalized antiproliferation [3, 17] was 8.541 and 7.72 and 7.186 and 7.798. The DMSO-normalized antiproliferation [3, 18] was 7.406 and 10.8399 and 10.8629 and 7.675, the DMSO-normalized antiproliferation [3, 19] was 12.7188 and 13.025 and 10.8965 and 13.2658 and the DMSO-normalized antiproliferation [3, 20] was 32.6374 and 45.5784 and 27.329 and 36.3182. The DMSO-normalized antiproliferation [3, 21] was 78.991 and 62.9303 and 95.6226 and 83.1029, the DMSO-normalized antiproliferation [3, 22] was 131.499 and 101.289 and 106.245 and 113.716 and the DMSO-normalized antiproliferation [3, 23] was 70.9753 and 109.585 and 109.74 and 110.516. For the same compound, the DMSO-normalized antiproliferation [3, 24] was 108.82 and 120.301 and 99.0114 and 87.8166, the DMSO-normalized antiproliferation [4, 15] was 89.4983 and 102.295 and 92.5832 and 113.039 and the DMSO-normalized antiproliferation [4, 16] was 114.787 and 91.3098 and 99.5825 and 107.277. For the same compound, the DMSO-normalized antiproliferation [4, 17] was 113.465 and 134.808 and 116.567 and 121.226, the DMSO-normalized antiproliferation [4, 18] was 129.284 and 117.496 and 141.381 and 115.953 and the DMSO-normalized antiproliferation [4, 19] was 103.38 and 130.979 and 121.849 and 101.748. The DMSO-normalized antiproliferation [4, 20] was 127.652 and 127.302 and 105.649 and 114.859, the DMSO-normalized antiproliferation [4, 21] was 124.033 and 144.628 and 127.266 and 105.313 and the DMSO-normalized antiproliferation [4, 22] was 110.895 and 108.017 and 114.025 and 143. For the same compound, the DMSO-normalized antiproliferation [4, 23] was 107.098 and 111.016 and 108.066 and 105.932, the DMSO-normalized antiproliferation [4, 24] was 102.188 and 109.313 and 104.448 and 106.317 and the “DMSO-normalized ratio of Nluc/Fluc signal” value (FKBP12^F36V-Nluc; [5]) was 9.718 and 7.82 and 6.838 and 6.452. The “DMSO-normalized ratio of Nluc/Fluc signal” value (FKBP12^F36V-Nluc; [6]) was 7.4356 and 7.1545 and 9.246 and 9.013, the “DMSO-normalized ratio of Nluc/Fluc signal” value (FKBP12^F36V-Nluc; [7]) was 8.136 and 6.155 and 6.261 and 6.581 and the “DMSO-normalized ratio of Nluc/Fluc signal” value (FKBP12^F36V-Nluc; [8]) was 5.707 and 7.548 and 7.612 and 6.01. For the same compound, the “DMSO-normalized ratio of Nluc/Fluc signal” value (FKBP12^F36V-Nluc; [9]) was 6.03 and 9.875 and 9.62 and 12.7928, the “DMSO-normalized ratio of Nluc/Fluc signal” value (FKBP12^F36V-Nluc; [10]) was 18.7955 and 27.4949 and 18.2618 and 15.8294 and the “DMSO-normalized ratio of Nluc/Fluc signal” value (FKBP12^F36V-Nluc; [11]) was 42.6816 and 38.7415 and 32.3273 and 32.9688. For the same compound, the “DMSO-normalized ratio of Nluc/Fluc signal” value (FKBP12^F36V-Nluc; [12]) was 36.5732 and 37.1776 and 61.6483 and 62.7104, the “DMSO-normalized ratio of Nluc/Fluc signal” value (FKBP12^F36V-Nluc; [13]) was 80.6958 and 88.3567 and 73.7011 and 76.297 and the “DMSO-normalized ratio of Nluc/Fluc signal” value (FKBP12^F36V-Nluc; [14]) was 75.9613 and 95.4034 and 80.0547 and 73.0727.
